Measured values from US20090175848A1, “Modulation of the Cooperativity Between the Ion Channels TRPM5 and TRPA1” (priority 2007, published 2009).

Columns and labels:
[1] = test system: TRPM5-expressing HEK-293 cells (TRPM5-293); experiment: FLIPR membrane potential assay in TRPM5-293 cells; type: cell-based, human; conditions: for effect on AITC membrane potential response: pre-treatment, then AITC, TRPM5-293 cells
Experimental: To create a stably transfected cell line expressing hTRPM5, 1.0×10^6 HEK 293 cells (ATCC, Manassas, Va.) were seeded in 35 mm tissue culture dishes (Falcon, BD Biosciences, Bedford, Mass.) and grown overnight in a 37° C. and 5% CO2 incubator, in culture medium consisting of DMEM, 10% fetal bovine serum (FBS), and penicillin with streptomycin. The next day, the cells were transfected using 4 μg of pcDNA 3.2-hTRPM5 with 7 μl of Lipofectamine 2000 (Invitrogen), following the manufacturer's protocol. After two days in culture, the cells were replated at 1:10 and 1:100 dilution, and from those plates seeded at very low density in 96-well plates to isolate single-cell colonies. To select individual clones, 1 mg/ml Geneticin (Invitrogen) was added to the culture medium. Once stably expressing clones were identified, the concentration of Geneticin was reduced to 0.25 mg/ml for expansion and maintenance. Clones were selected on the basis of their response to ATP (Sigma) and lonomycin (Sigma) in the FLIPR® assay using the Membrane Potential Assay Kit RED (Molecular Devices). Stable cell lines in chinese hamster ovary cells (CHO-M1) were created similarly except that 5.0×10^5 cells were plated in 35 mm dishes overnight and the selection medium consisted of F-12K/Ham's, 10% fetal bovine serum (FBS), 100 μg/ml of Geneticin, and 10 μg/ml Blasticidin S HCl, and penicillin with streptomycin. Stably expressing clones were maintained in the same medium except that the Balsticidin S HCl concentration was reduced to 5 μg/ml.
(§1) For hTRPM5-293 or HEK293 assays, cells were seeded overnight in poly-D-lysine coated 384-well plates at 15,000 cells per well in 20 μl of media. For assays of hTrpM5-CHO-M1 assays cells were seeded overnight in tissue culture treated 384-well plates at 10,000 cells per well in 20 μl of media. The assay was performed using a fluorometric imaging plate reader (FLIPR-Tetra™, Molecular Devices, Sunnyvale, Calif.), using the excitation 510-545 nm and emission 565-625 nm filter sets. The cells were loaded with 20 μl/well of Membrane Potential Assay Kit RED dye (Molecular Devices), in a 37° C. and 5% CO2 incubator for 1 hour. To measure intracellular calcium changes, the Calcium 3 dye (Molecular Devices) supplemented with 125 μM was used. The plates were equilibrated to room temperature for 15 minutes before the start of the assay. The compounds allyl isothiocyanate (AITC), cinnamaldehyde, EGTA, ionomycin, U73122, U73144 were purchased from Sigma-Aldrich (St. Louis, Mo.) and stocks prepared in DMSO. Samples were diluted in HBSS with 20 mM HEPES prior to the assay and 10 μl per well was added to the assay plate. The plates were read on the FLIPR® for a total of 3 minutes for a single addition assay and 6 minutes for a 2 addition assay. For single addition assays, baseline fluorescence was obtained on the FLIPR® for 10 seconds followed by addition of each sample by the FLIPR® and read for an additional 2 minutes and 50 seconds. For 2 addition assays, baseline fluorescence was obtained on the FLIPR® for 10 seconds followed by addition of the first sample (e.g. inhibitors, EGTA) by the FLIPR®, read for 2 minutes and 50 seconds, then followed by the addition of AITC and read for another 3 minutes. For ΔRFU measurements, the baseline fluorescence signal (RFUmin) was subtracted from the peak fluorescence signal (RFUmax) at each compound concentration (RFUmax—RFUmin). ΔRFU values for individual concentrations were measured in triplicate, and s.d. reported as error bars.

[2] = test system: TRPM5-expressing HEK-293 cells (TRPM5-293); experiment: FLIPR calcium assay in TRPM5-293 cells; type: cell-based, human; conditions: for effect on AITC calcium response: pre-treatment, then AITC, TRPM5-293 cells
Experimental: (§2) To create a stably transfected cell line expressing hTRPM5, 1.0×10^6 HEK 293 cells (ATCC, Manassas, Va.) were seeded in 35 mm tissue culture dishes (Falcon, BD Biosciences, Bedford, Mass.) and grown overnight in a 37° C. and 5% CO2 incubator, in culture medium consisting of DMEM, 10% fetal bovine serum (FBS), and penicillin with streptomycin. The next day, the cells were transfected using 4 μg of pcDNA 3.2-hTRPM5 with 7 μl of Lipofectamine 2000 (Invitrogen), following the manufacturer's protocol. After two days in culture, the cells were replated at 1:10 and 1:100 dilution, and from those plates seeded at very low density in 96-well plates to isolate single-cell colonies. To select individual clones, 1 mg/ml Geneticin (Invitrogen) was added to the culture medium. Once stably expressing clones were identified, the concentration of Geneticin was reduced to 0.25 mg/ml for expansion and maintenance. […]
For hTRPM5-293 or HEK293 assays, cells were seeded overnight in poly-D-lysine coated 384-well plates at 15,000 cells per well in 20 μl of media. […] The assay was performed using a fluorometric imaging plate reader (FLIPR-Tetra™, Molecular Devices, Sunnyvale, Calif.), using the excitation 510-545 nm and emission 565-625 nm filter sets. […] The plates were read on the FLIPR® for a total of 3 minutes for a single addition assay and 6 minutes for a 2 addition assay. For single addition assays, baseline fluorescence was obtained on the FLIPR® for 10 seconds followed by addition of each sample by the FLIPR® and read for an additional 2 minutes and 50 seconds. For 2 addition assays, baseline fluorescence was obtained on the FLIPR® for 10 seconds followed by addition of the first sample (e.g. inhibitors, EGTA) by the FLIPR®, read for 2 minutes and 50 seconds, then followed by the addition of AITC and read for another 3 minutes. For ΔRFU measurements, the baseline fluorescence signal (RFUmin) was subtracted from the peak fluorescence signal (RFUmax) at each compound concentration (RFUmax—RFUmin). ΔRFU values for individual concentrations were measured in triplicate, and s.d. reported as error bars.

[3] = test system: parental HEK-293 cells; experiment: FLIPR calcium assay in untransfected cells; type: cell-based, human; conditions: untransfected (parental HEK-293) cells
Experimental: as §1, with “The plates were equilibrated to room temperature for 15 minutes before the start of the assay. The compounds allyl isothiocyanate (AITC), cinnamaldehyde, EGTA, ionomycin, U73122, U73144 were purchased from Sigma-Aldrich (St. Louis, Mo.) and stocks prepared in DMSO. Samples were diluted in HBSS with 20 mM HEPES prior to the assay and 10 μl per well was added to the assay plate.” left out, “For ΔRFU measurements, the baseline fluorescence signal (RFUmin) was subtracted from the peak fluorescence signal (RFUmax) at each compound concentration (RFUmax—RFUmin). ΔRFU values for individual concentrations were measured in triplicate, and s.d. reported as error bars.” left out

[4] = test system: Chinese hamster ovary (CHO) cells expressing TRPM5; experiment: FLIPR assay in CHO cells expressing TRPM5; type: cell-based; conditions: TRPM5 expressed in CHO cells
Experimental: as §2, with “colonies.” for “colonies. To select individual clones, 1 mg/ml Geneticin (Invitrogen) was added to the culture medium. Once stably expressing clones were identified, the concentration of Geneticin was reduced to 0.25 mg/ml for expansion and maintenance.”
For hTRPM5-293 or HEK293 assays, cells were seeded overnight in poly-D-lysine coated 384-well plates at 15,000 cells per well in 20 μl of media. […] The assay was performed using a fluorometric imaging plate reader (FLIPR-Tetra™, Molecular Devices, Sunnyvale, Calif.), using the excitation 510-545 nm and emission 565-625 nm filter sets. […] The plates were read on the FLIPR® for a total of 3 minutes for a single addition assay and 6 minutes for a 2 addition assay. For single addition assays, baseline fluorescence was obtained on the FLIPR® for 10 seconds followed by addition of each sample by the FLIPR® and read for an additional 2 minutes and 50 seconds. […]

[5] = test system: TRPM5-expressing HEK cells; experiment: Whole-cell electrophysiology in TRPM5-expressing HEK cells; type: cell-based, human; conditions: whole-cell voltage clamp, voltage dependence
Experimental: Whole-cell recordings of TRP channel currents were obtained from acutely trypsinized TRPM5-expressing HEK cells. The bath solution was Hank's Balanced Salt Solution, composed of (mM); 1.2 CaCl2, 0.5 MgCl2-6H2O, 0.4 MgSO4-7H2O, 5.3 KCl, 0.4 KH2PO4, 137.9 NaCl, 0.3 Na2HPO4-7H2O, and 5.5 D-Glucose, with 20 mM HEPES (Invitrogen), pH 7.4 (NaOH). The internal pipette solution contained, in mM: 135 glutamic acid, 8 NaCl, 3 CaCl2, 10 HEPES and 10 EGTA, pH 7.2 (CsOH) (Sigma). Calculated concentration of free calcium in internal solution was 77 nM (MaxChelator, Stanford University). Recording pipettes were pulled using a Flaming/Brown Micropipette Puller (Sutter Instruments), from fire-polished borosilicate glass, to approximately 2 MΩ. Voltage clamp recordings were obtained in whole cell mode using MultiClamp 700B amplifier and Digidata 1322A converter running on Clampex 9.2 software (Axon Instruments). Recordings were performed at room temperature. Series resistance was automatically compensated immediately after the break-in. Data were sampled at 5 kHz and filtered at 1 kHz. AITC was dissolved in bath solution and applied to the cells with a multi-barrel applicator (SF-72, Warner Instruments).

[6] = agonist added to TRPM5-293 cells, FLIPR

SMILES | effect on ionomycin membrane potential response ([1]; ionomycin as stimulus) | effect on AITC membrane potential response [1] | effect on AITC calcium response [2] | intracellular calcium response [3] | EC50 ([1]; Homo sapiens, HEK293, read-out: EC50 (tested concentration closest to it)) [µM] | EC90 ([1]; Homo sapiens, HEK293, read-out: EC90 (tested concentration closest to it)) [µM] | membrane potential response [1, 6] | intracellular calcium levels [2, 6] | activation of TRPM5 [4] | desensitization of the AITC-activated current [5]
COc1ccc2c(c1)CC[C@@H]1[C@@H]2CC[C@]2(C)[C@@H](NCCCCCCN3C(=O)C=CC3=O)CC[C@@H]12 [U73122] | enhances | enhanced | enhanced |  |  |  |  |  |  | 
O=C(O)CN(CCOCCOCCN(CC(=O)O)CC(=O)O)CC(=O)O [EGTA] |  | altered the membrane potential | inhibited the calcium response |  |  |  |  |  |  | 
C=CCN=C=S [AITC, allyl isothiocyanate] |  |  |  | no response | ~3 | ~33 | strong membrane potential response | increase in intracellular calcium levels | does not activate | delayed at positive membrane potentials
